Experimental findings from patent US20260256704A1, “STEALTH-STABILIZED LIPO-POLYAMINO ACIDS” (POLYPEPTIDE THERAPEUTIC SOLUTIONS, S.L., priority 2022, published 2026) are described below.

In one experiment the test system is HeLa cells. The experiment is described as follows: Luciferase assay for transfection efficiency in HeLa cells. In kind it is cell-based. The settings on record: LNPs containing the conjugate. The protocol: HeLa cells were cultured in DMEM high glucose with Glutamax (Gibco—Thermo Fisher #61965-059) supplemented with 10% of Fetal Bovine Serum (Hyclone #SV30160.03HI, provided by GE Healthcare Europe GmbH) and 1% penicillin/streptomycin. Transfections were carried out on 96-well plates containing 10000 cells/well in a final volume of 100 μl, and cells were incubated 24 hours at 37° C. and 5% CO2. After 24 h from cell seeding, the medium was removed and refreshed with 90 μl of complete medium. 10 μl of each LNPs formulation were added to the cells. In the case of positive control (Lipofectamine™ 2000 Transfection Reagent, Invitrogen™), manufacturer guidelines were followed. After 24 hours cells were recovered and processed.
After 24 h post-incubation with the LNPs formulation, 100 μl of BrightGlo reagent (Promega #E2620) was added in each well following manufacturer instructions. After 5 minutes of incubation at room temperature luciferase activity was measured using VictorNivo (PerkinElmer). Data was represented as luminescence relative to the percentage of transfection relative to the positive control of transfection.
The transfection data is represented as % of the positive control Lipofectamine™ 2000 being the positive control 100% after 24 h of treatment and cell viability is compared to non-treated (NT) cells, being the ATP content readout of NT (non-treated) cells equal to 100%.

In another experiment the test system is HEK293 cells. The experiment can be described thus: Luciferase assay for transfection efficiency in HEK293 cells. In kind it is cell-based. The note with it: at different concentrations (50-300 ng mRNA/well). The protocol: HEK293 cells were cultured in DMEM high glucose with Glutamax (Gibco—Thermo Fisher #61965-059) supplemented with 10% of Fetal Bovine Serum (Hyclone #SV30160.03HI, provided by GE Healthcare Europe GmbH) and 1% penicillin/streptomycin. Transfections were carried out on 96-well plates containing 30000 cells/well in a final volume of 100 μl, and cells were incubated 24 hours at 37° C. and 5% CO2. After 24 h from cell seeding, the medium was removed and refreshed with 90 μl of complete medium. 10 μl of each LNPs formulation were added to the cells. After 24 hours cells were recovered and processed.
After 24 h post-incubation with the LNPs formulation, 100 μl of BrightGlo reagent (Promega #E2620) was added in each well following manufacturer instructions. After 5 minutes of incubation at room temperature luciferase activity was measured using VictorNivo (PerkinElmer). Data was represented as luminescence relative to the percentage of transfection relative to the positive control of transfection. […]

As to C14-PGA(Diol) [Lipo-PAA1], the “transfection efficiency relative to the gold standard Lipofectamine” value in the experiment on HeLa cells was 2.5 fold.
Take C14-PSar [C14PSar]: in the experiment with HEK293 cells, the “transfection efficiency relative to the commercial standard DMG-PEG” value was “comparable transfection to DMG-PEG”.
